From patent US7335674B2, “Benzothiazole-4,7-diones and benzoxazole-4,7-diones with substituents in position 5 or 6 and method for production thereof” (Societe de Conseils de Recherches et d'Applications …, priority 2003, dated 2008) come the findings set out here.

SMILES strings stand for the structures. pIC50: −log10 of the molar value.

Data set [1] relates to Mia-Paca2 (human pancreas cancer cells). As to the kind of experiment: Antiproliferative activity, WST1 colorimetric test, Mia-PaCa2. It is filed as cell-based. To be noted: MIA PaCa-2, Mia-Paca2, treated 96 hours, up to 10 μM, read-out: IC50 on the cell proliferation of the Mia-Paca2 lines. The method, then: (§1) iii) Characterization of the Antiproliferative Activity:
(§2) By way of example, the effect of a treatment on two human cell lines Mia-Paca2 and DU145 by the compounds of the examples described previously will be studied. The cell lines DU145 (human prostate cancer cells) and Mia-PaCa2 (human pancreas cancer cells) were acquired from the American Tissue Culture Collection (Rockville, Md., USA). The cells placed in 80 μl of Dulbecco's Modified Eagle's medium (Gibco-Brl, Cergy-Pontoise, France) completed with 10% foetal calf serum inactivated by heating (Gibco-Brl, Cergy-Pontoise, France), 50,000 units/l of penicillin and 50 mg/l of streptomycin (Gibco-Brl, 10378-057, Cergy-Pontoise, France), and 2 mM of glutamine (Gibco-Brl, Cergy-Pontoise, France) were seeded on a 96-well plate on day 0. The cells were treated on day 1 for 96 hours with increasing concentrations of each of the compounds to be tested up to 10 μM. At the end of this period, quantification of cell proliferation is evaluated by a colorimetric test based on the cleavage of the tetrazolium salt WST1 by the mitochondrial dehydrogenases in viable cells leading to the formation of formazan (Boehringer Mannheim, Meylan, France). These tests are carried out in duplicate with 8 determinations per concentration tested. For each compound to be tested, the values included in the linear part of the sigmoid were retained for a linear regression analysis and used to estimate the inhibitory concentration IC50. The products are solubilized in dimethylsulphoxide (DMSO) at 10^−2 M and finally used in culture with 0.1% DMSO.

For data set [2], the system named is DU145 (human prostate cancer cells). Description: Antiproliferative activity, WST1 colorimetric test, DU145. Format: cell-based. Conditions: DU-145, treated 96 hours, up to 10 μM, read-out: IC50 on the cell proliferation of the DU-145 lines. The method, then: as §1, §2
For orientation: Tetrazolium assays rely on reduction of a dye to a coloured formazan, in cell work by metabolically active cells.

Turning to `CN(C)CCNC1=CC(=O)c2nc(-c3cc(F)c(F)c(F)c3)oc2C1=O` [Example 36, 6-{[2-(dimethylamino)ethyl]amino}-2-(3,4,5-trifluorophenyl)-1,3-benzoxazole4,7-dione], the melting point (usually the temperature of the solid-liquid transition) is 188 to 189 °C. In data set [1], the pIC50 is at least 5.00. For the same compound, the pIC50 in data set [2] was at least 5.00.
In turn, `O=C1C=C(NCCN2CCCC2)C(=O)c2oc(-c3cc(F)c(F)c(F)c3)nc21` [Example 52, 6-[(2-pyrrolidin-1-ylethyl)amino]-2-(3,4,5-trifluorophenyl)-1,3-benzoxazole4,7-dione] registered a melting point of 171 to 172 °C. Also, the pIC50 in data set [1] was at least 5.00. Moreover, the pIC50 in data set [2] is at least 5.00.
Consider `Cc1cc(-c2nc3c(o2)C(=O)C(NCCN2CCCC2)=CC3=O)ccc1Br` [Example 53, 2-(4-bromo-3-methylphenyl)-6-[(2-pyrrolidin-1-ylethyl)amino]-1,3-benzoxazole-4,7-dione], for which the melting point lay in the range of 171 to 172 °C. Besides, in data set [1], the pIC50 was at least 5.00. Moreover, in data set [2], the pIC50 is at least 5.00.
As for `CCCCc1ccc(-c2nc3c(s2)C(=O)C(NCCN(C)C)=CC3=O)cc1` [Example 11, 2-(4-butylphenyl)-6-{[2-(dimethylamino)ethyl]amino}-1,3-benzothiazole-4,7-dione], the melting point fell in the range of 126 to 127 °C. For the same compound, the pIC50 in data set [1] was at least 5.00. In addition, the pIC50 in data set [2] is at least 5.00.
For the compound `O=C1C=C(NCCN2CCCC2)C(=O)c2oc(-c3ccc4c(c3)OCO4)nc21` [Example 59, 2-(1,3-benzodioxol-5-yl)-6-[(2-pyrrolidin-1-ylethyl)amino]-1,3-benzoxazole4,7-dione], the melting point lay in the range of 171 to 172 °C. Besides, the pIC50 in data set [1] is at least 5.00. Besides, the pIC50 in data set [2] is at least 5.00.
`CN(C)CCNC1=CC(=O)c2nc(-c3cccc(Cl)c3)oc2C1=O` [Example 30, 2-(3-chlorophenyl)-6-{[2-(dimethylamino)ethyl]amino}-1,3-benzoxazole4,7-dione] registered a melting point of 174 to 175 °C. Moreover, in data set [1], the pIC50 is at least 5.00. Moreover, the pIC50 in data set [2] is at least 5.00.
